Format in all cases: in vivo, C57BL/6NTac mice
One test has as its system iNOS mRNA. As to the kind of experiment: RT-PCR of iNOS mRNA in brain (hippocampus and amygdala) of CRS model. The note with it: CRS+BA group, 100 mg/kg oral. Here is the method: (§1) In order to confirm the antidepressant efficacy of bornyl acetate on the animal model of stress depression, an animal model of depression induced by chronic restrained stress (CRS) was prepared. Specifically, the animal model, 8-week-old male C57BL/6NTac mice after birth (Narabiotechnology, Korea; weight 22-24 g) had been stabilized for 1 week. A 50 ml conical tube (SPL Life sciences, Pocheon, Korea) was punched to make a hole, thereby making a restraint frame. The mice were put in the frame and restrained for 2 hours every day for 14 days. After restraint, the mice were allowed to freely ingest water and food in the home cage.
In order to confirm the inhibitory effect of bornyl acetate on the expression of inflammatory mediators in an animal model of depression induced by chronic restrained stress, mRNA expression was confirmed using reverse transcription-polymerase chain reaction (RT-PCR). Bornyl acetate (100 mg/kg) was orally administered 1 hour before inducing the restrained stress every day. […]
Western blot and RT-PCR analysis were performed in the brain (hippocampus and amygdala) of an animal model of chronic restrained stress (CRS)-induced stress depression to exam and quantify the activation level of inflammatory mediators, thereby verifying the modulating effect of bornyl acetate on the inflammatory response in the brain. […]

The test system of test [1] is animal model of stress depression induced by chronic restrained stress (CRS). As to the kind of experiment: Forced swimming test (FST) in CRS-induced stress depression model. The following applies: CRS+BA group, oral daily 1 hour before restraint, 24 hours after TST, last 4 minutes of 6-minute test; dose not stated. Here is the method:
as §1, with “cage. 24 hours after the tail suspension test, distilled water (23-24° C.) was filled to a height of about 14 cm in a circular water tank (diameter 15×height 25 cm), and the mice were dropped and forced to swim. […] Bornyl acetate (25, 50 and 100 mg/kg) of the present invention was dissolved in 0.1 M PBS, and the mixture was orally administered 1 hour before inducing restrained stress every day. Bornyl acetate was administered in a dose per individual of 100 μl.” for “cage.”

A further test concerns COX-2 protein. As to the kind of experiment: Western blot of COX-2 protein in brain (hippocampus and amygdala) of CRS model. The following applies: CRS+BA group. Here is the method: In order to confirm the antidepressant efficacy of bornyl acetate on the animal model of stress depression, an animal model of depression induced by chronic restrained stress (CRS) was prepared. Specifically, the animal model, 8-week-old male C57BL/6NTac mice after birth (Narabiotechnology, Korea; weight 22-24 g) had been stabilized for 1 week. A 50 ml conical tube (SPL Life sciences, Pocheon, Korea) was punched to make a hole, thereby making a restraint frame. The mice were put in the frame and restrained for 2 hours every day for 14 days. After restraint, the mice were allowed to freely ingest water and food in the home cage. The hippocampus and amygdala of the brain were excised. They were added to 200 μl of a protein lysis buffer (10 mM Tris, 0.5 mM EDTA, 0.25 M sucrose), and proteins were isolated using a grinder. The isolated protein was quantified by the Bradford method (Bio-rad, USA) using bovine serum albumin (BSA, Sigma, USA), and then 25 μg of the protein was separated by 10% sodium dodecyl sulfate-polyacrylamide gel electrophoresis (SDS-PAGE) and transferred to polyvinylidene difluoride (PVDF) membrane (Gendepot, UK). PVDF membranes were blocked in 5% skimmed milk (BD, USA) for 1 hour. […] Identification and quantitative analysis of proteins were analyzed using an imaging device ChemiDoc XRS+ (Bio-Rad). […]
(In general: In western blotting, separated proteins are transferred to a membrane and probed.)

Each structure is given as a SMILES string.

For the molecule `CC(=O)OC1CC2CCC1(C)C2(C)C` (centres unmarked) [BA, bornyl acetate], the “mRNA expression of iNOS (CRS-induced increase)” value in the test with iNOS mRNA (amygdala) and in the test on iNOS mRNA (hippocampus) was “significantly inhibited” each time. Moreover, the “time of immobility, forced swimming test” value in test [1] was 85.2 s. Besides, the “protein expression of COX-2 (CRS-induced increase)” value with COX-2 protein (amygdala) and in the test on COX-2 protein (hippocampus) was “significantly inhibited” in each case.

Values taken from patent publication US12285399B2, “Composition comprising bornyl acetate or pharmaceutically acceptable salt thereof as active ingredient for prevention or treatment of stress-related disorder” (UNIVERSITY-INDUSTRY COOPERATION GROUP OF KYUNG HEE …, priority 2019, dated 2025).
